Counter-ions that a name gives are not always drawn.

T1 sequence (Q93009 whole entry): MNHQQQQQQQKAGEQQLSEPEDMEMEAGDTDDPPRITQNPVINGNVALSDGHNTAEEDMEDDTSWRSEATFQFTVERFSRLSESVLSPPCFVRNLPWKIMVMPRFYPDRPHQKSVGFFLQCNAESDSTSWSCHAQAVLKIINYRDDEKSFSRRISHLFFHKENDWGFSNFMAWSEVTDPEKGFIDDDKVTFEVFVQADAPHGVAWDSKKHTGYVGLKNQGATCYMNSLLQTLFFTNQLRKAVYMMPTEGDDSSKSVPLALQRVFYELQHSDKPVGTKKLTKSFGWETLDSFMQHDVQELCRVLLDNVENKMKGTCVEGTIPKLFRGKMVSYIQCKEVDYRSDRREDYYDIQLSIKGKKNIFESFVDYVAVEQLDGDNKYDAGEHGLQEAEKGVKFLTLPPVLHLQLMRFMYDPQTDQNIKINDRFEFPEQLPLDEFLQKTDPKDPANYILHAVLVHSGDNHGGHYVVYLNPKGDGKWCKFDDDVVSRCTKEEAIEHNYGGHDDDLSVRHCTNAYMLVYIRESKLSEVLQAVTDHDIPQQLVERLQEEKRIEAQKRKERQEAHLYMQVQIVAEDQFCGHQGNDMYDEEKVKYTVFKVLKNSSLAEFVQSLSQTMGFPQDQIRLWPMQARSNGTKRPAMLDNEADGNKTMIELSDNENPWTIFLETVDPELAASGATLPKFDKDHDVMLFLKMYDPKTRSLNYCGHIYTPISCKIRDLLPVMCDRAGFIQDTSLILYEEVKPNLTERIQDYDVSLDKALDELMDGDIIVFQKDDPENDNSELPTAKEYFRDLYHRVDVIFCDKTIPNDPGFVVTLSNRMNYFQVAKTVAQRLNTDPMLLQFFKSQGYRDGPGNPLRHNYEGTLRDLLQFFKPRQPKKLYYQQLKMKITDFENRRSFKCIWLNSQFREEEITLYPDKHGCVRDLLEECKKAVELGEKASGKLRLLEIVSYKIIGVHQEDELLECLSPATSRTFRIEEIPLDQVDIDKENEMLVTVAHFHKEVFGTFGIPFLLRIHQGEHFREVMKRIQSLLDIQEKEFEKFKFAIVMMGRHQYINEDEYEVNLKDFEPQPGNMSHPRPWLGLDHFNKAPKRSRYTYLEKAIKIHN

The first experiment addresses T1, recombinant full-length USP7 (Homo sapiens, UniProt Q93009).
T1 construct: A 25 μl reaction volume containing recombinant full-length USP7 (62 pM)
Description: USP7-mediated ubiquitin-rhodamine cleavage assay. The experiment is classed as biochemical. As to conditions: recombinant full-length USP7 62 pM; ubiquitin-rhodamine 100 nM; 30-minute incubation with compound, 1 hour reaction at room temperature; read-out: Potency: USP7 IC50. In a few lines: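 Rhodamine fluorescence read-out after acetic acid stop; IC50 by 4-parameter nonlinear regression. Enzyme at 62 pM, substrate ubiquitin-rhodamine 100 nM final, 1 h at room temperature in the dark, after 30 min compound preincubation. Buffer: HEPES pH 7.3, NaCl, TCEP, BSA; 1% DMSO.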
For the compound `O=C1CCC(=O)N1Cc1cc2nccc(-c3cc(Cl)cc(Cl)c3O[C@@H]3CNC[C@@H]3F)c2s1` [Example 123, 1-((7-(3,5-Dichloro-2-(((3R,4S)-4-fluoropyrrolidin-3-yl)oxy)phenyl)thieno[3,2-b]pyridin-2-yl)methyl)pyrrolidine-2,5-dione], the IC50 (usually the concentration that inhibits the measured activity by half) was below 1 µM. The same measure, in the same setting: under `Cc1cc(Cl)cc(-c2ncnc3cc(CN4C(=O)C5C(C4=O)C5(C)C)sc23)c1OC1CNCC1(C)C` (centres unmarked) [Example 371, 3-[[4-[5-chloro-2-(4,4-dimethylpyrrolidin-3-yl)oxy-3-methyl-phenyl]thieno[3,2-d]pyrimidin-6-yl]methyl]-6,6-dimethyl-3-azabicyclo[3.1.0]hexane-2,4-dione] stands below 1 µM. Still for that read-out and setting: for `Cc1cc(Cl)cc(-c2ccnc3cc(Cn4c(=O)ccn(CC(F)(F)F)c4=O)sc23)c1O[C@@H]1CNCC[C@@H]1C` [Example 337, 3-[[7-[5-chloro-3-methyl-2-[[(3S,4S)-4-methyl-3-piperidyl]oxy]phenyl]thieno[3,2-b]pyridin-2-yl]methyl]-1-(2,2,2-trifluoroethyl)pyrimidine-2,4-dione] the value was below 1 µM. With `CN[C@H]1CC[C@H](Oc2c(C)cc(Cl)cc2-c2ccnc3cc(CN4C(=O)CCC4=O)sc23)CC1` [Example 213, 1-((7-(5-Chloro-3-methyl-2-(((1r,4r)-4-(methylamino)cyclohexyl)oxy)phenyl)thieno[3,2-b]pyridin-2-yl)methyl)pyrrolidine-2,5-dione], the IC50 was below 1 µM. With `Cc1cc(Cl)cc(-c2ccnc3cc(CN4C(=O)CCC4=O)sc23)c1OC1CN2CCC1CC2` (centres unmarked) [Example 318, 1-[[7-(5-chloro-3-methyl-2-quinuclidin-3-yloxy-phenyl)thieno[3,2-b]pyridin-2-yl]methyl]pyrrolidine-2,5-dione; 2,2,2-trifluoroacetic acid], the IC50 is below 1 µM. The same measure, in the same setting: under `Cc1cc(Cl)cc(-c2ccnc3ccsc23)c1OC1CCNCC1` [Example 180, 7-(5-Chloro-3-methyl-2-(piperidin-4-yloxy)phenyl)thieno[3,2-b]pyridine] stands 10 to 30 µM; under `Cc1cc(Cl)cc(-c2ncnc3cc(CN4C(=O)C5C(C4=O)C5(C)C)sc23)c1O[C@@H]1CCNC[C@@H]1F` (stereo partly drawn) [Example 377, 3-[[4-[5-chloro-2-[[(3S,4R)-3-fluoro-4-piperidyl]oxy]-3-methyl-phenyl]thieno[3,2-d]pyrimidin-6-yl]methyl]-6,6-dimethyl-3-azabicyclo[3.1.0]hexane-2,4-dione; 2,2,2-trifluoroacetic acid], below 1 µM; under `CCN1C[C@H]2C[C@@H]1[C@H](Oc1c(C)cc(Cl)cc1-c1ncnc3cc(CN4C(=O)C5C(C4=O)C5(C)C)sc13)C2` (stereo partly drawn) [Example 356, 3-[[4-[5-chloro-2-[[(1S,4R,5R)-3-ethyl-3-azabicyclo[2.2.1]heptan-5-yl]oxy]-3-methyl-phenyl]thieno[3,2-d]pyrimidin-6-yl]methyl]-6,6-dimethyl-3-azabicyclo[3.1.0]hexane-2,4-dione dihydrochloride], below 1 µM. Still for that read-out and setting: under `Cc1cc(Cl)cc(-c2ccnc3cc(CN4C(=O)C5CC5C4=O)sc23)c1O[C@H]1CC[C@H](C)NC1` (stereo partly drawn) [Example 305, 3-[[7-[5-chloro-3-methyl-2-[[(3S,6S)-6-methyl-3-piperidyl]oxy]phenyl]thieno[3,2-b]pyridin-2-yl]methyl]-3-azabicyclo[3.1.0]hexane-2,4-dione; 2,2,2-trifluoroacetic acid] stands below 1 µM. Same read-out and setting: under `Cc1cc(Cl)cc(-c2ccnc3cc(CN4C(=O)CCC4=O)sc23)c1O[C@@H]1C[C@H]2CC[C@@H](C1)N2` [Example 215, 1-((7-(2-(((1R,3s,5S)-8-Azabicyclo[3.2.1]octan-3-yl)oxy)-5-chloro-3-methylphenyl)thieno[3,2-b]pyridin-2-yl)methyl)pyrrolidine-2,5-dione] stands below 1 µM; under `CC(=O)N[C@H]1CNC[C@H]1Oc1c(C)cc(Cl)cc1-c1ccnc2cc(CO)sc12` [Example 84, N-((3S,4R)-4-(4-Chloro-2-(2-(hydroxymethyl)thieno[3,2-b]pyridin-7-yl)-6-methylphenoxy)pyrrolidin-3-yl)acetamide], 10 to 30 µM. In the case of `Cc1cc(Cl)cc(-c2ncnc3cc(Cn4c(=O)ccn(CC(F)(F)F)c4=O)sc23)c1O[C@@H]1CCNC[C@@H]1F` [Example 170, 3-((4-(5-Chloro-2-(((3S,4R)-3-fluoropiperidin-4-yl)oxy)-3-methylphenyl)thieno[3,2-d]pyrimidin-6-yl)methyl)-1-(2,2,2-trifluoroethyl)pyrimidine-2,4(1H,3H)-dione], the concentration for half-maximal inhibition (IC50) was below 1 µM.

For the compound `Cc1cc(Cl)cc(-c2ccnc3cc(CN4C(=O)CC5(CCCC5)CC4=O)sc23)c1OC1CCNCC1` [Example 236, 8-((7-(5-Chloro-3-methyl-2-(piperidin-4-yloxy)phenyl)thieno[3,2-b]pyridin-2-yl)methyl)-8-azaspiro[4.5]decane-7,9-dione], the half-inhibitory concentration (IC50) is below 1 µM. Take `Cc1cc2nccc(-c3cc(Cl)ccc3OCC3CNC3)c2s1` [Example 28, 7-(2-(Azetidin-3-ylmethoxy)-5-chlorophenyl)-2-methylthieno[3,2-b]pyridine]: the IC50 was 1 to 10 µM. Still for that read-out and setting: under `Cc1cc(C(F)(F)F)cc(-c2ccnc3cc(CN4C(=O)CCC4=O)sc23)c1O[C@H]1CCCNC1` [Example 254, (S)-1-((7-(3-Methyl-2-(piperidin-3-yloxy)-5-(trifluoromethyl)phenyl)thieno[3,2-b]pyridin-2-yl)methyl)pyrrolidine-2,5-dione] stands below 1 µM.

Staying with this experiment, now noted: recombinant full-length USP7 62 pM; ubiquitin-rhodamine 100 nM; 30-minute pre-incubation, 1 hour reaction at room temperature; read-out: Potency (USP7 IC50).
Take `Cc1cc(Cl)cc(-c2ccnc3cc(Cn4c(=O)ccn(C)c4=O)sc23)c1O[C@@H]1CC[C@@H](N)C1` [Example 426, 3-[[7-[2-[(1R,3R)-3-aminocyclopentoxy]-5-chloro-3-methyl-phenyl]thieno[3,2-b]pyridin-2-yl]methyl]-1-methyl-pyrimidine-2,4-dione; 2,2,2-trifluoroacetic acid]: the IC50 is below 1 µM.

Turning to `Cc1cc(Cl)cc(-c2ccnc3cc(Cn4c(=O)c(F)cn(C)c4=O)sc23)c1O[C@@H]1CNC[C@@H]1F` [Example 470, 3-[[7-[5-chloro-2-[(3R,4S)-4-fluoropyrrolidin-3-yl]oxy-3-methyl-phenyl]thieno[3,2-b]pyridin-2-yl]methyl]-5-fluoro-1-methyl-pyrimidine-2,4-dione], the half-maximal inhibitory concentration (IC50) was below 1 µM. Regarding `Cc1cc(Cl)cc(-c2ccnc3cc(Cn4c(=O)ccn(C(C)C)c4=O)sc23)c1O[C@H]1CCCNC1` [Example 447, 3-[[7-[5-chloro-3-methyl-2-[[(3S)-3-piperidyl]oxy]phenyl]thieno[3,2-b]pyridin-2-yl]methyl]-1-isopropyl-pyrimidine-2,4-dione], the IC50 was below 1 µM.

For `Cc1cc(Cl)cc(-c2ccnc3cc(CN4C(=O)CCC4=O)sc23)c1OC1CNCc2ccccc21` (centres unmarked) [Example 429, 1-[[7-[5-chloro-3-methyl-2-(1,2,3,4-tetrahydroisoquinolin-4-yloxy)phenyl]thieno[3,2-b]pyridin-2-yl]methyl]pyrrolidine-2,5-dione], the IC50 was below 1 µM. Turning to `Cc1cc(Cl)cc(-c2ccnc3cc(Cn4c(=O)ccn(CC(F)(F)F)c4=O)sc23)c1O[C@@H]1CNC[C@@H]1C` [Example 625, 3-[[7-[5-chloro-3-methyl-2-[(3S,4S)-4-methylpyrrolidin-3-yl]oxy-phenyl]thieno[3,2-b]pyridin-2-yl]methyl]-1-(2,2,2-trifluoroethyl)pyrimidine-2,4-dione], the IC50 was below 1 µM.

The record behind these values is patent US10722514B2 (FLX Bio, Inc., priority 2017, dated 2020).
